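Protocol summary: plate cells (96-well), add compound at 5 concentrations, incubate 48 h, interpolate endpoints linearly. GI50: concentration for 50% inhibition of growth. TGI is the concentration that stops growth completely.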
Experiments:
Assay in all cases: NCI tumour cell line growth inhibition, 48 h
RXF 393 renal = test system: RXF 393 renal
SF-539 CNS = test system: SF-539 CNS
SK-MEL-5 melanoma = test system: SK-MEL-5 melanoma
SNB-19 CNS = test system: SNB-19 CNS
K-562 leukemia = test system: K-562 leukemia
MCF7 breast = test system: MCF7 breast
MDA-MB-231 breast = test system: MDA-MB-231 breast
NCI-H226 lung = test system: NCI-H226 lung
NCI/ADR-RES ovarian = test system: NCI/ADR-RES ovarian
T-47D breast = test system: T-47D breast

## CCNC(=O)O/N=C1\CCC2[C@@H]3CC=C4C[C@@H](OC5CCCCO5)CC[C@]4(C)C3CC[C@]12C (some centres not stated)
RXF 393 renal
  TGI: 5.64 µM
SF-539 CNS
  TGI: > 100 µM
SK-MEL-5 melanoma
  TGI: > 100 µM
SNB-19 CNS
  TGI: 9.94 µM

## CC(C)(C)CC(N)=O
K-562 leukemia
  TGI: > 100 µM
MCF7 breast
  TGI: > 100 µM
MDA-MB-231 breast
  TGI: > 100 µM
NCI-H226 lung
  TGI: > 100 µM
NCI/ADR-RES ovarian
  TGI: > 100 µM
SF-539 CNS
  TGI: > 100 µM
SK-MEL-5 melanoma
  TGI: > 100 µM
SNB-19 CNS
  TGI: > 100 µM
T-47D breast
  TGI: > 100 µM

## OCc1ccc(N2CCc3ccccc3C2)cc1Cl
K-562 leukemia
  GI50: < 0.0224 µM
  TGI: 19 µM
MCF7 breast
  GI50: < 0.01 µM
  TGI: 55.3 µM
MDA-MB-231 breast
  GI50: 12.4 µM
  TGI: 40.8 µM
NCI-H226 lung
  GI50: 0.0134 µM
  TGI: 0.0768 µM
NCI/ADR-RES ovarian
  GI50: 5.13 µM
  TGI: 39.8 µM
RXF 393 renal
  GI50: 13.5 µM
  TGI: 28.8 µM
SF-539 CNS
  GI50: 41.9 µM
  TGI: > 100 µM
SNB-19 CNS
  GI50: 31 µM
  TGI: > 100 µM

## C=C(C(=C)P(=S)(c1ccccc1)c1ccccc1)P(=S)(c1ccccc1)c1ccccc1
K-562 leukemia
  TGI: > 100 µM
RXF 393 renal
  TGI: > 100 µM
SF-539 CNS
  TGI: > 100 µM
SK-MEL-5 melanoma
  TGI: > 100 µM
SNB-19 CNS
  TGI: > 100 µM

## O=C1CCSC2=C1SCc1sccc12
K-562 leukemia
  TGI: > 100 µM
RXF 393 renal
  TGI: > 100 µM
SK-MEL-5 melanoma
  TGI: > 100 µM
SNB-19 CNS
  TGI: > 100 µM

## COc1ccccc1NC(=O)c1nc2ccc([N+](=O)[O-])cc2nc1C
K-562 leukemia
  TGI: > 100 µM
NCI-H226 lung
  TGI: > 100 µM
SF-539 CNS
  TGI: > 100 µM
SK-MEL-5 melanoma
  TGI: > 100 µM
SNB-19 CNS
  TGI: > 100 µM

## Cc1cc(C(C)(C)C)cc(CNC2CCCCC2)c1O
K-562 leukemia
  TGI: 51.3 µM
MCF7 breast
  TGI: 32.3 µM
MDA-MB-231 breast
  TGI: 32.9 µM
NCI/ADR-RES ovarian
  TGI: 31.2 µM
RXF 393 renal
  TGI: 12.6 µM
SF-539 CNS
  TGI: 33 µM
SK-MEL-5 melanoma
  TGI: 30.9 µM
SNB-19 CNS
  TGI: 31.9 µM
T-47D breast
  TGI: 32.8 µM

## CCN1Cc2nc3sc(C)c(C)c3c(=O)n2C=C1C
K-562 leukemia
  GI50: 3.35 µM
  TGI: 17.8 µM
MCF7 breast
  GI50: 3.94 µM
  TGI: 53.3 µM
MDA-MB-231 breast
  GI50: 8.14 µM
  TGI: 24.7 µM
NCI-H226 lung
  GI50: 8.17 µM
  TGI: 21.9 µM
NCI/ADR-RES ovarian
  GI50: 5.12 µM
  TGI: 79.6 µM
SF-539 CNS
  GI50: 12.9 µM
  TGI: 34.4 µM
SK-MEL-5 melanoma
  GI50: 5.87 µM
  TGI: 51.8 µM
SNB-19 CNS
  GI50: 17.9 µM
  TGI: > 100 µM
T-47D breast
  GI50: 4.17 µM
  TGI: > 100 µM

## Clc1ccc(-c2c(C3=NCCCN3)nnn2-c2ccccc2)cc1
K-562 leukemia
  TGI: > 100 µM
NCI-H226 lung
  TGI: > 100 µM
RXF 393 renal
  TGI: > 100 µM
SF-539 CNS
  TGI: > 100 µM
SK-MEL-5 melanoma
  TGI: > 100 µM
SNB-19 CNS
  TGI: > 100 µM

## CC1=CC(N2C(=O)C(C)=CC2O)NC1=O (configuration not stated)
NCI-H226 lung
  TGI: > 100 µM
RXF 393 renal
  TGI: > 100 µM
SF-539 CNS
  TGI: > 100 µM
SNB-19 CNS
  TGI: > 100 µM

## COC(=O)C1=C(C(=O)OC)C2(C)Nc3ccccc3C2=C(c2ccccc2)C1 (configuration not stated)
K-562 leukemia
  TGI: 47.8 µM
RXF 393 renal
  TGI: 54.3 µM
SF-539 CNS
  TGI: 37.5 µM
SK-MEL-5 melanoma
  TGI: 29.9 µM
SNB-19 CNS
  TGI: 75.5 µM

## CC(=O)NC1C(OCc2ccccc2)OC(COC(=O)CCCCCCCCCCNc2ccc([N+](=O)[O-])c3[nH]c4ccccc4c(=O)c23)C(O)C1OC(C)C(=O)NC(C)C(=O)NC(CCC(N)=O)C(=O)OCc1ccccc1 (configuration not stated)
K-562 leukemia
  TGI: > 100 µM
NCI-H226 lung
  TGI: > 100 µM
SF-539 CNS
  TGI: > 100 µM
SK-MEL-5 melanoma
  TGI: > 100 µM
SNB-19 CNS
  TGI: > 100 µM

## O=C1c2cc([N+](=O)[O-])ccc2-c2ccc3c4ccc5c6c(ccc(c7ccc1c2c73)c64)C(=O)c1cc([N+](=O)[O-])ccc1-5
K-562 leukemia
  TGI: > 100 µM
MCF7 breast
  TGI: > 100 µM
MDA-MB-231 breast
  TGI: > 100 µM
NCI-H226 lung
  TGI: > 100 µM
NCI/ADR-RES ovarian
  TGI: > 100 µM
RXF 393 renal
  TGI: > 100 µM
SK-MEL-5 melanoma
  TGI: > 100 µM
SNB-19 CNS
  TGI: > 100 µM
T-47D breast
  TGI: > 100 µM

## NCC1OC(OC2C(CO)OC(OC3C(O)C(N)CC(N)C3OC3OC(CO)C(O)CC3N)C2O)C(N)C(O)C1OC1OC(CO)C(O)C(O)C1O (configuration not stated)
K-562 leukemia
  GI50: > 50 µg/mL
  TGI: > 50 µg/mL
MCF7 breast
  GI50: > 50 µg/mL
  TGI: > 50 µg/mL
MDA-MB-231 breast
  GI50: > 50 µg/mL
  TGI: > 50 µg/mL
NCI-H226 lung
  GI50: > 50 µg/mL
  TGI: > 50 µg/mL
NCI/ADR-RES ovarian
  GI50: > 50 µg/mL
  TGI: > 50 µg/mL
SF-539 CNS
  GI50: > 50 µg/mL
  TGI: > 50 µg/mL
SK-MEL-5 melanoma
  GI50: > 50 µg/mL
  TGI: > 50 µg/mL
SNB-19 CNS
  GI50: > 50 µg/mL
  TGI: > 50 µg/mL
T-47D breast
  GI50: > 50 µg/mL
  TGI: > 50 µg/mL

## CN1CCN(C)C12C=CC=CC21CC1
K-562 leukemia
  TGI: > 100 µM
NCI-H226 lung
  TGI: > 100 µM
RXF 393 renal
  TGI: > 100 µM
SF-539 CNS
  TGI: > 100 µM
SK-MEL-5 melanoma
  TGI: > 100 µM
SNB-19 CNS
  TGI: > 100 µM

## COc1cc([C@@H]2C[C@H]2c2cc(SC)n[nH]2)cc(OC)c1OC
K-562 leukemia
  GI50: 21 µM
  TGI: > 100 µM
MCF7 breast
  GI50: 18.8 µM
  TGI: 41.2 µM
MDA-MB-231 breast
  GI50: 12.1 µM
  TGI: 33.2 µM
NCI-H226 lung
  GI50: 16.9 µM
  TGI: 70.4 µM
NCI/ADR-RES ovarian
  GI50: 17.6 µM
  TGI: 49.3 µM
RXF 393 renal
  GI50: 0.0483 µM
  TGI: 5.7 µM
SK-MEL-5 melanoma
  GI50: 14.7 µM
  TGI: 29 µM
SNB-19 CNS
  GI50: 35 µM
  TGI: > 100 µM
T-47D breast
  GI50: 16.5 µM
  TGI: > 100 µM

## Cn1c(/C=C/[N+](=O)[O-])cc2ccccc21
K-562 leukemia
  GI50: 2.9 µM
  TGI: > 100 µM
MDA-MB-231 breast
  GI50: 5.49 µM
  TGI: 47.9 µM
NCI-H226 lung
  GI50: 4.23 µM
  TGI: 21 µM
NCI/ADR-RES ovarian
  GI50: 6.45 µM
  TGI: 92.5 µM
RXF 393 renal
  GI50: 1.66 µM
  TGI: 3.08 µM
SK-MEL-5 melanoma
  GI50: 3.07 µM
  TGI: 13.3 µM
SNB-19 CNS
  GI50: 11.1 µM
  TGI: 28.8 µM
T-47D breast
  GI50: 2.79 µM
  TGI: 8.61 µM

## COc1ccc(Nc2cc(C)nc(NCCCNc3ccnc4cc(Cl)ccc34)n2)cc1
K-562 leukemia
  GI50: 0.495 µM
  TGI: 2.28 µM
MCF7 breast
  GI50: 1.16 µM
  TGI: 2.74 µM
MDA-MB-231 breast
  GI50: 1.55 µM
  TGI: 3.31 µM
NCI-H226 lung
  GI50: 2.08 µM
  TGI: 5.17 µM
NCI/ADR-RES ovarian
  GI50: 2.38 µM
  TGI: 6.27 µM
SF-539 CNS
  GI50: 1.24 µM
  TGI: 2.64 µM
SK-MEL-5 melanoma
  GI50: 1.4 µM
  TGI: 2.76 µM
SNB-19 CNS
  GI50: 3.48 µM
  TGI: 13.4 µM
T-47D breast
  GI50: 1.68 µM
  TGI: 3.69 µM

## c1ccc2cc(C[n+]3ccn(CCCCCCCCCCn4cc[n+](Cc5ccc6ccccc6c5)c4)c3)ccc2c1
K-562 leukemia
  GI50: 0.602 µM
  TGI: 2.97 µM
MCF7 breast
  GI50: 0.554 µM
  TGI: 2.3 µM
MDA-MB-231 breast
  GI50: 1.33 µM
  TGI: 5.3 µM
NCI-H226 lung
  GI50: 0.918 µM
  TGI: 13.6 µM
NCI/ADR-RES ovarian
  GI50: 29.4 µM
  TGI: > 100 µM
RXF 393 renal
  GI50: 0.822 µM
  TGI: 3.72 µM
SF-539 CNS
  GI50: 1.19 µM
  TGI: 6.54 µM
T-47D breast
  GI50: 0.491 µM
  TGI: 4.74 µM

## O=C(COC(=O)c1cccc2c(=O)c3ccccc3[nH]c12)Nc1ccc(C(=O)O)cc1
K-562 leukemia
  TGI: > 100 µM
NCI-H226 lung
  TGI: > 10 µM
RXF 393 renal
  TGI: > 100 µM
SF-539 CNS
  TGI: > 100 µM
SK-MEL-5 melanoma
  TGI: > 100 µM
SNB-19 CNS
  TGI: > 100 µM

— PubChem BioAssay (NCI)
